Assay [1] concerns the target T1, human GPR55 (Homo sapiens, UniProt Q9Y2T6).
T1 construct: expressed in transfected cells; host or cells: HEK293 (human embryonic kidney) cells
Briefly: Ca2+ mobilization assay (FLIPR, Calcium5 dye), human GPR55. Format: cell-based. The following applies: HEK293 cells co-expressing PK-tagged human GPR55 and EA-tagged beta-arrestin; intracellular calcium increase. Summed up: (§1)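 HEK293 cells co-expressing PK-tagged human or rat GPR55 and EA-tagged beta-arrestin were loaded with Calcium5 dye for 1 hour at 37° C in HEPES/HBSS buffer, pH 7.4, with probenecid and 0.1% BSA. Compound dilution series were added in duplicate and calcium rise followed by FLIPR fluorescence; response = maximum minus minimum.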

Assay [2] concerns the target T2, rat GPR55 (Rattus norvegicus, UniProt F1MAK4).
T2 construct: expressed in transfected cells; host or cells: HEK293 (human embryonic kidney) cells
T2 sequence (F1MAK4 1-319): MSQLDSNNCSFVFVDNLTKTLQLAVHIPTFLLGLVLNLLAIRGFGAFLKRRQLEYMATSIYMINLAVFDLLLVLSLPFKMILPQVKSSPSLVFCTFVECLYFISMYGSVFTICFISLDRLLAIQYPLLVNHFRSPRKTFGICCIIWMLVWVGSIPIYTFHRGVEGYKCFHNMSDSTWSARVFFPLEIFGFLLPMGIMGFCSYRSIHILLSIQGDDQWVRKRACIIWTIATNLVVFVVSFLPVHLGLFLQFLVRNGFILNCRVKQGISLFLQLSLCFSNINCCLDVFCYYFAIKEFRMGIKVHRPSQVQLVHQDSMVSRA
As to the kind of experiment: Ca2+ mobilization assay (FLIPR, Calcium5 dye), rat GPR55. Format: cell-based. As to conditions: HEK293 cells co-expressing PK-tagged rat GPR55 and EA-tagged beta-arrestin; intracellular calcium increase. A digest of the protocol: as §1
For orientation: A change in cytosolic calcium serves as a functional read-out for many receptors and channels.

Assay [3] relates to striatal medium spiny neurons. Briefly: Electrophysiology assay: whole-cell patch clamp, firing frequency. Type of assay: cell-based, Wistar rat. As to conditions: rat striatal cultures, current steps 10-200 pA. The method, then:
Selected compounds were tested in electrophysiology.
Striatal cultures were prepared as follows. Wistar rat embryos (E18) were sacrificed by cervical dislocation and brains removed into an ice-cold hanks balanced salt solution (HBSS) containing 10 mM HEPES, 1 mM sodium pyruvate and 0.035% sodium bicarbonate. The brain was hemisected, striata removed and placed in a papain solution (Worthington LK003150) for 10 min at 37° C. Tissue was then vigorously triturated until devoid of clumps, passed through a 70 μm mesh filter and centrifuged at 1000 rcf for 5 min. Supernatant was discarded and cells resuspended and centrifuged once more through an ovomucoid gradient before final resuspension in plating medium (containing EMEM 75%, FBS 10%, glutamate 12.5 μM, GlutaMax 0.5 mM, sodium pyruvate 10 mM, glucose 33.3 mM, HEPES […]). Cells were counted and spot plated onto 13 mm coverslips at a density of 200K. After 3 h, solution was topped up to 1 ml with growth medium (containing NBplus 98%, B27plus 2%, GlutaMax 0.5 mM). […]
Whole-cell patch clamp recordings were performed from visually identified medium spiny neurons. A step protocol was applied to inject current into the cell (10-200 pA, 10 pA steps, 500 ms) and resulting action potentials recorded. […] Frequency of firing was analysed off-line using Clampfit software.
In general terms: In patch-clamp work, channel activity is measured electrically.

A value given as a limit tells only on which side of the number the result lay.

T1 sequence (Q9Y2T6 whole entry): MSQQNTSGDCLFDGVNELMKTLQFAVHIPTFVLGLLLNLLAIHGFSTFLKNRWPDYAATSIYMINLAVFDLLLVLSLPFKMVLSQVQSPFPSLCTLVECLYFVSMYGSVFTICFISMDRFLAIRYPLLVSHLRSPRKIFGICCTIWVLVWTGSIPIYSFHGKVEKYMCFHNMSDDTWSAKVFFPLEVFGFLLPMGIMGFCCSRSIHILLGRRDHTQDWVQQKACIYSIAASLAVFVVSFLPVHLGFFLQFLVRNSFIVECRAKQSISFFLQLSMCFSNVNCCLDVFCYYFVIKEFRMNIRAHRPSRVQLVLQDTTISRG

Regarding `COc1cncc(-c2ccc(N[C@H](C)c3ccc(F)cc3)nc2)c1` [Example 6, (R)-N-(1-(4-fluorophenyl)ethyl)-5′-methoxy-[3,3′-bipyridin]-6-amine], the EC50 (in general, the midpoint of the concentration-response curve) in assay [1] is not above 200 nM; in assay [2] it was not above 50 nM. The “firing frequency of medium spiny neurons relative to baseline” value in assay [3] (10 μM, FIG. 2) was “significantly reduced the frequency”.

Turning to `C[C@@H](Nc1cnc(-c2cncc(CC(F)F)c2)cn1)c1ccc(F)cc1` [Example 31, (R)-5-(5-(2,2-difluoroethyl)pyridin-3-yl)-N-(1-(4-fluorophenyl)ethyl)pyrazin-2-amine], the EC50 in assay [1] and in assay [2] was not above 50 nM each time. In assay [3] (1 μM, FIG. 3), the “firing frequency of medium spiny neurons relative to baseline” value is “significantly reduced the frequency”.

With `C=Cc1cc(-c2cnc(N[C@H](C)c3ccc(F)cc3)cn2)cnn1` [Example 44, (R)-N-(1-(4-fluorophenyl)ethyl)-5-(6-vinylpyridazin-4-yl)pyrazin-2-amine], the EC50 in assay [1] was not above 1000 nM; in assay [2], not above 5000 nM.

In the case of `Cc1cncc(-c2ccc(N[C@H](C)c3ccc(F)cc3)nc2)c1C` [Example 11, (R)-N-(1-(4-fluorophenyl)ethyl)-4′,5′-dimethyl-[3,3′-bipyridin]-6-amine], the EC50 in assay [1] and in assay [2] was not above 1000 nM in each case.

Turning to `CCc1cncc(-c2ccc(N[C@H](C)c3cccc(F)c3)nc2)c1` [Example 48, (R)-5′-ethyl-N-(1-(3-fluorophenyl)ethyl)-[3,3′-bipyridin]-6-amine], the EC50 is not above 50 nM in assay [1] and not above 1000 nM in assay [2].

Values taken from patent publication US20250282728A1, “NITROGEN COMPRISING HETEROCYCLIC DERIVATIVES FOR THE TREATMENT OF DISORDERS ASSOCIATED WITH GPR55 RECEPTOR” (Cerevance, Inc., priority 2022, published 2025).
